Assay results published in US20130261130A1, “NEUROTRYPSIN INHIBITORS” (priority 2010, published 2013).
pIC50: −log10 of the molar value.

Target: T1, human neurotrypsin (Homo sapiens, UniProt P56730)
T1 sequence (P56730 21-875): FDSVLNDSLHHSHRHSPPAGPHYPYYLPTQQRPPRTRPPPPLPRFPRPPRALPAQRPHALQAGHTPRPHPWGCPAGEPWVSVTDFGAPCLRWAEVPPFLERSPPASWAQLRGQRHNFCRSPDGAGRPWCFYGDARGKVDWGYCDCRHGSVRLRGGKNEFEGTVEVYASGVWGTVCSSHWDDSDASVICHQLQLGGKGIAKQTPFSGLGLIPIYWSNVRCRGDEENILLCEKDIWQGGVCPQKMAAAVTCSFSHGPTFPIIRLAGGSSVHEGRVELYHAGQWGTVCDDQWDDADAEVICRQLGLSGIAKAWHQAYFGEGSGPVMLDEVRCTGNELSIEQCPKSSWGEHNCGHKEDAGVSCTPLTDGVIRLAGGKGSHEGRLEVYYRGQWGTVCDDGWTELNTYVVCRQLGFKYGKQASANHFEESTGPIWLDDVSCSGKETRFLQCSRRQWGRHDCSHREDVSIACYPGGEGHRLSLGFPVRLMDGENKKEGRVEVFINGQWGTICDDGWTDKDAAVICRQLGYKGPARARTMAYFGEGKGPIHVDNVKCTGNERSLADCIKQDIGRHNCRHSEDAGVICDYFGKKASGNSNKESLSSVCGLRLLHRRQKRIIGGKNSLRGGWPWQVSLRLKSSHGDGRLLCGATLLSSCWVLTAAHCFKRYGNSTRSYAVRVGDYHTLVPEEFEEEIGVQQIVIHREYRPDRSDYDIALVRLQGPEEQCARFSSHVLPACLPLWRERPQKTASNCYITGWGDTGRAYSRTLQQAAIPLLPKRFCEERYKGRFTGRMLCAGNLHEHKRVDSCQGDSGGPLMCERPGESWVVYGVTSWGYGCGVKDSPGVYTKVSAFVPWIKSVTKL
Test: Determination of IC50 for human neurotrypsin
Type: biochemical
Details: human neurotrypsin; method of WO 2006/1103261; read-out: Neurotrypsin IC50
Experimental: Assessment of the potency of compounds of examples 1-311 in inhibiting the enzymatic activity of human neurotrypsin was performed according to the method described in patent application WO 2006/1103261

| SMILES | pIC50 |
| --- | --- |
| O=C(NCc1ccc(Cl)cc1)c1ccc(C(=O)O)c(NC(=O)c2sc3ccccc3c2Cl)c1 [Example 148, 2-(3-Chloro-benzo[b]-thiophene-2-carboxamido)-4-(4-chlorobenzylcarbamoyl)-benzoic acid] | 5.37 |
| O=C(Nc1ccccn1)c1ccc(C(=O)O)c(NC(=O)c2sc3ccccc3c2Cl)c1 [Example 149, 2-(3-Chloro-benzo[b]-thiophene-2-carboxamido)-4-(pyridin-2-ylcarbamoyl)-benzoic acid] | 4.78 |
| O=C(O)c1ccc(C(=O)N2CCC(O)(c3ccc(Cl)c(C(F)(F)F)c3)CC2)cc1NC(=O)c1sc2ccccc2c1Cl [Example 151, 4-(4-(4-Chloro-3-(trifluoro-methyl)phenyl)-4-hydroxy-piperidine-1-carbonyl)-2-(3-chlorobenzo[b]thiophene-2-carboxamido)benzoic acid] | 5.57 |
| CCOC(=O)CN(C(=O)c1ccc(C(=O)O)c(NC(=O)c2sc3ccccc3c2Cl)c1)c1ccc(Cl)cc1 [Example 156, 2-(3-Chlorobenzo[b]-thiophene-2-carboxamido)-4-(N-(4-chlorophenyl)-N-(ethoxycarbonylmethyl)-carbamoyl)benzoic acid] | 5.33 |
| O=C(O)c1cc(C(=O)N2CCC(Cc3ccccc3)CC2)ccc1NC(=O)c1sc2ccccc2c1Cl [Example 157, 5-(4-Benzylpiperidine-1-carbonyl)-2-(3-chlorobenzo[b]thiophene-2-carboxamido)benzoic acid] | 5.42 |
| O=C(Nc1ccc(C(=O)N2CCC(Cc3ccccc3)CC2)cc1C(=O)O)c1cc2ccc(Cl)cc2s1 [Example 158, 5-(4-Benzylpiperidine-1-carbonyl)-2-(6-chloro-benzo[b]thiophene-2-carboxamido)benzoic acid] | 5.42 |
| O=C(NC1Cc2ccccc2C1)c1ccc(NC(=O)c2sc3ccccc3c2Cl)c(C(=O)O)c1 [Example 159, 2-(3-Chlorobenzo[b]-thiophene-2-carboxamido)-5-(indan-2-ylcarbamoyl)benzoic acid] | 5.19 |
| O=C(Nc1ccc(C(=O)N2CCC(Oc3ccccc3)CC2)cc1C(=O)O)c1cc2ccc(Cl)cc2s1 [Example 160, 2-(6-Chlorobenzo[b]thiophene-2-carboxamido)-5-(4-phenoxypiperidine-1-carbonyl)benzoic acid] | 5.41 |
| O=C(Nc1ccc(C(=O)N2CCC(Cc3ccccc3)CC2)cc1C(=O)O)c1ccc(-c2ccc(Cl)cc2)s1 [Example 161, 5-(4-Benzylpiperidine-1-carbonyl)-2-(5-(4-chloro-phenyl)thiophene-2-carboxamido)benzoic acid] | 5.52 |
| O=C(Nc1ccc(C(=O)N2CCC(Oc3ccccc3)CC2)cc1C(=O)O)c1ccc(-c2ccc(Cl)cc2)s1 [Example 162, 2-(5-(4-Chlorophenyl)-thiophene-2-carboxamido)-5-(4-phenoxypiperidine-1-carbonyl)benzoic acid] | 5.35 |
| O=C(Nc1ccc(C(=O)N2CCC(c3ccccc3)CC2)cc1C(=O)O)c1cc2ccc(Cl)cc2s1 [Example 163, 2-(6-Chlorobenzo[b]-thiophene-2-carboxamido)-5-(4-phenylpiperidine-1-carbonyl)benzoic acid] | 5.59 |
| O=C(Nc1ccc(C(=O)N2CCC(Cc3ccc(Cl)cc3)CC2)cc1C(=O)O)c1cc2ccc(Cl)cc2s1 [Example 164, 2-(6-Chlorobenzo[b]-thiophene-2-carboxamido)-5-(4-(4-chlorobenzyl)piperidine-1-carbonyl)benzoic acid] | 5.46 |
| O=C(NCc1c(F)cccc1F)c1ccc(NC(=O)c2cc3ccc(Cl)cc3s2)c(C(=O)O)c1 [Example 165, 2-(6-Chlorobenzo[b]-thiophene-2-carboxamido)-5-(2,6-difluorobenzyl-carbamoyl)benzoic acid] | 5.05 |
| O=C(O)c1ccc(C(=O)Nc2ccc(Cl)cc2)c(NC(=O)c2sc3ccccc3c2Cl)c1 [Example 188, 3-(3-Chlorobenzo[b]-thiophene-2-carboxamido)-4-(4-chlorophenylcarbamoyl)-benzoic acid] | 5.17 |
| O=C(O)c1ccc(C(=O)Nc2ccc(Cc3ccccc3)cc2)c(NC(=O)c2sccc2Cl)c1 [Example 196, 4-(4-Benzylphenyl-carbamoyl)-3-(3-chloro-thiophene-2-carboxamido)-benzoic acid] | 4.99 |
| O=C(O)c1ccc(NC(=O)c2ccc(Cl)s2)c(C(=O)Nc2ccc(Cl)cc2)c1 [Example 218, 3-(4-Chlorophenyl-carbamoyl)-4-(5-chloro-thiophene-2-carboxamido)-benzoic acid] | 4.39 |
| O=C(Nc1ccc(Cl)cc1)c1ccc(-c2nn[nH]n2)c(NC(=O)c2sc3ccccc3c2Cl)c1 [Example 229, 3-Chloro-benzo[b]thiophene-2-carboxylic acid [5-(4-chloro-phenyl-carbamoyl)-2-(2H-tetrazol-5-yl)phenyl]amide] | 5.43 |
| O=C(O)c1ccc(/C=C/Cc2ccccc2)cc1NC(=O)c1sc2ccccc2c1Cl [Example 246] | 4.01 |
| O=C(O)c1ccc(C#Cc2ccc(Cl)cc2)cc1NC(=O)c1sc2ccccc2c1Cl [Example 248] | < 3.82 |
| COc1ccc(-c2ccc(C(=O)O)c(NC(=O)c3sc4ccccc4c3Cl)c2)cc1 [Example 249] | 5.55 |
| O=C(O)c1ccc(-c2ccccc2Cl)cc1NC(=O)c1sc2ccccc2c1Cl [Example 250] | 5.62 |
| N#Cc1ccc(-c2ccc(C(=O)O)c(NC(=O)c3sc4ccccc4c3Cl)c2)cc1 [Example 255] | 5.51 |
| O=C(O)c1ccc(-c2cn(-c3ccc(Cl)cc3)nn2)cc1NC(=O)c1sc2ccccc2c1Cl [Example 257, 2-(3-Chlorobenzo[b]thiophene-2-carboxamido)-4-(1-(4-chlorophenyl)-1H-1,2,3-triazol-4-yl)benzoic acid] | 5.42 |
| O=C(O)c1ccc(-c2cn(Cc3ccccc3)nn2)cc1NC(=O)c1sc2ccccc2c1Cl [Example 258] | 5.03 |
| O=C(O)c1ccc(-c2cn(Cc3c(F)cccc3F)nn2)cc1NC(=O)c1sc2ccccc2c1Cl [Example 260] | 4.96 |
| O=C(O)c1ccc(-c2cn(-c3ccc(Cl)c(C(F)(F)F)c3)nn2)cc1NC(=O)c1sc2ccccc2c1Cl [Example 261] | 5.26 |
| O=C(O)c1ccc(-c2cn(Cc3ccc(Cl)s3)nn2)cc1NC(=O)c1sc2ccccc2c1Cl [Example 262] | 5.15 |
| O=C(O)c1cc(-c2cn(-c3ccc(Cl)cc3)nn2)ccc1NC(=O)c1sc2ccccc2c1Cl [Example 263] | 5.40 |
| COc1ccc(-c2ccc(C(=O)O)c(NC(=O)c3ccc(-c4nc5cc(Cl)c(Cl)cc5[nH]4)cc3)c2)cc1 [Example 266] | 5.43 |
| N#Cc1ccc(-c2ccc(C(=O)O)c(NC(=O)c3ccc(-c4nc5cc(Cl)c(Cl)cc5[nH]4)cc3)c2)cc1 [Example 267] | 6.30 |

Second part, the molecule after the results:

| pIC50 | SMILES |
| --- | --- |
| 4.64 | O=C(O)c1cc(NC(=O)c2sc3ccccc3c2Cl)ccc1C(=O)Nc1ccc(Cl)cc1 [Example 270, 5-(3-Chlorobenzo[b]thiophene-2-carboxamido)-2-(4-chlorophenyl-carbamoyl)benzoic acid] |
| 4.85 | O=C(O)c1cc(NC(=O)c2sc3ccccc3c2Cl)ccc1C(=O)Nc1ccc(Cl)cc1 [Example 271] |
| 5.12 | O=C(Nc1ccc(C(=O)O)c(NC(=O)c2sc3ccccc3c2Cl)c1)c1ccc(Cl)cc1 [Example 273] |
| 5.18 | O=C(Nc1ccc(C(=O)O)c(NC(=O)c2sc3ccccc3c2Cl)c1)c1ccc(Cl)s1 [Example 274] |
| 5.52 | O=C(Nc1ccc(C(=O)O)c(NC(=O)c2ccc(-c3ccccc3)s2)c1)c1ccc(Cl)s1 [Example 275] |
| 5.20 | O=C(Nc1ccc(Cl)cc1)Nc1ccc(C(=O)O)c(NC(=O)c2sc3ccccc3c2Cl)c1 [Example 276] |
| 5.46 | O=C(Nc1cc(NC(=O)c2sc3ccccc3c2Cl)ccc1C(=O)O)c1ccc(Cl)cc1 [Example 277] |
| 4.71 | O=C(O)c1ccc(NS(=O)(=O)c2ccc(Cl)cc2)cc1NC(=O)c1sc2ccccc2c1Cl [Example 278] |
| 5.27 | O=C(O)c1ccc(NC(=O)N2CCC(c3ccccc3)CC2)cc1NC(=O)c1sc2ccccc2c1Cl [Example 279] |
| 5.30 | O=C(O)c1ccc(NCc2ccc(Cl)cc2)cc1NC(=O)c1sc2ccccc2c1Cl [Example 280, 2-(3-Chlorobenzo[b]thiophene-2-carboxamido)-4-(4-chlorobenzylamino)-benzoic acid] |
| 4.95 | O=C(O)c1ccc(N2CC(c3ccc(Cl)cc3)CC2=O)cc1NC(=O)c1sc2ccccc2c1Cl (centres unmarked) [Example 282] |
| 5.47 | O=C(Nc1cc(N2CC(c3ccc(Cl)cc3)CC2=O)ccc1C(=O)O)c1ccc(-c2ccc(Cl)cc2)s1 (centres unmarked) [Example 283] |
| 4.98 | O=C(O)c1ccc(N2CC(c3ccc(Cl)cc3)CCC2=O)cc1NC(=O)c1sc2ccccc2c1Cl (centres unmarked) [Example 286] |
| 5.37 | O=C(O)c1cc(N2CC(c3ccc(Cl)cc3)CC2=O)ccc1NC(=O)c1sc2ccccc2c1Cl (centres unmarked) [Example 287] |
